Laboratory results reported in ChEMBL document CHEMBL5331085 (Eur J Med Chem, 2023).
≈ marks a conversion by molar mass, not a printed value. Calls of active or inactive are those of the source. The calls are words filed in the database; no cut-off is given here. Positions of bridges follow the written chain, without caps; N, C: chain ends. Non-standard residues stand in square brackets, D forms with d. Residues, ends and D or L forms follow the SMILES beside them. *: point of attachment. Ileψ(thiazoline)Cys = CC[C@H](C)[C@H](N)C1=N[C@H](C(=O)*)CS1; dOrn = NCCC[C@@H](N)C(=O)O

Tests used:
[1] = test system: Staphylococcus aureus; assay: Induction of drug resistance in Staphylococcus aureus ATCC 29213 at 0.1 times MIC measured after 20 passages; type: functional
[2] = test system: Stenotrophomonas maltophilia; assay: Antimicrobial activity against Stenotrophomonas maltophilia ATCC 17808 incubated for 16 to 20 hrs by CLSI based broth dilution method; type: functional; settings: Stenotrophomonas maltophilia, ATCC 17808; time 16-20 hrs; read-out: MIC
[3] = test system: Escherichia coli; assay: Antimicrobial activity against Escherichia coli ATCC 25922 incubated for 16 to 20 hrs by CLSI based broth dilution method; type: functional; settings: Escherichia coli, ATCC 25922; time 16-20 hrs; read-out: MIC
[4] = test system: Enterococcus faecium; assay: Antimicrobial activity against Enterococcus faecium ATCC 29212 incubated for 16 to 20 hrs by CLSI based broth dilution method; type: functional; settings: Enterococcus faecium, ATCC 29212, time 16-20 hrs; read-out: MIC
[5] = test system: Staphylococcus aureus; assay: Antimicrobial activity against Staphylococcus aureus ATCC 29213 incubated for 16 to 20 hrs by CLSI based broth dilution method; type: functional; settings: Staphylococcus aureus, ATCC 29213; time 16-20 hrs; read-out: MIC
[6] = Hemolytic activity in sheep erythrocytes incubated for 1 hr by absorbance based analysis; type: toxicity, cell-based, Ovis aries, Erythrocyte; settings: sheep erythrocytes
[7] = test system: Staphylococcus aureus; assay: Antimicrobial activity against methicillin-resistant Staphylococcus aureus incubated for 16 to 20 hrs by CLSI based broth dilution method; type: functional; settings: time 16-20 hrs

With `C[C@H]1COc2c(N3CCN(C)CC3)c(F)cc3c(=O)c(C(=O)O)cn1c23` the Activity [1] was “Active”.
`CCCCCCCCCC[N+](C)(C)CCCOc1ccc(-c2ccc(OCCC[N+](C)(C)CCCCCCCCCC)cc2)cc1.[Br-].[Br-]` gave an MIC [2] of 2 µg/mL, an MIC [3] of 2 µg/mL and an MIC [4] of 0.5 µg/mL. For the same compound, the MIC [5] was 1 µg/mL and the HC50 at 1 h [6] was 18 µg/mL.
For `CCCCCCCC[N+](C)(C)CCCOc1ccc(-c2ccc(OCCC[N+](C)(C)CCCCCCCC)cc2)cc1.[Br-].[Br-]`, the MIC [2] was 2 µg/mL, the MIC [3] was 1 µg/mL and the MIC [4] was 0.5 µg/mL. It also gave an MIC [5] of 1 µg/mL and an HC50 at 1 h [6] of 83 µg/mL.
With `CCCCCCCC[N+](C)(C)CCCOc1ccccc1-c1ccccc1OCCC[N+](C)(C)CCCCCCCC.[Br-].[Br-]` the MIC [2] was 2 µg/mL, the MIC [3] was 1 µg/mL and the MIC [4] was 0.5 µg/mL. For the same compound, the MIC [5] was 1 µg/mL and the HC50 at 1 h [6] was 109 µg/mL.
For `CC[C@H](C)[C@H](N)C1=N[C@H](C(=O)N[C@@H](CC(C)C)C(=O)N[C@H](CCC(=O)O)C(=O)N[C@H](C(=O)N[C@H]2CCCCNC(=O)[C@H](CC(N)=O)NC(=O)[C@@H](CC(=O)O)NC(=O)[C@H](Cc3cnc[nH]3)NC(=O)[C@@H](Cc3ccccc3)NC(=O)[C@H]([C@@H](C)CC)NC(=O)[C@@H](CCCN)NC2=O)[C@@H](C)CC)CS1` [BACITRACIN] ({Ileψ(thiazoline)Cys}-L[dE]IK[dOrn]I[dF]H[dD]N; lactam 4-C), the MIC [3] was greater than 128 µg/mL, the MIC [4] was 16 µg/mL (≈ 11.2 µM) and the MIC [5] was 16 µg/mL (≈ 11.2 µM).
Work on `CCCCCCCCCC[N+](C)(C)CCCOc1ccccc1-c1ccccc1OCCC[N+](C)(C)CCCCCCCCCC.[Br-].[Br-]` yielded an MIC [2] of 4 µg/mL, an MIC [3] of 4 µg/mL and an MIC [4] of 1 µg/mL. The MIC [5] was 2 µg/mL and the HC50 at 1 h [6] was 10 µg/mL.
In the case of `CC1(C)S[C@@H]2[C@H](NC(=O)[C@H](N)c3ccccc3)C(=O)N2[C@H]1C(=O)O`, the Activity [1] is reported as “Active”.
Compound `C[C@H]1c2cccc(O)c2C(=O)C2=C(O)[C@]3(O)C(=O)C(C(N)=O)=C(O)[C@@H](N(C)C)[C@@H]3[C@@H](O)[C@@H]21.O` [DOXYCYCLINE] has an MIC90 [7] of 8 µg/mL.
With `C[C@@H](O)[C@H]1C(=O)N2C(C(=O)O)=C(S[C@@H]3CN[C@H](C(=O)N(C)C)C3)[C@H](C)[C@H]12` [MEROPENEM] the MIC [3] was 0.063 µg/mL (≈ 0.164 µM) and the HC50 at 1 h [6] was greater than 1280 µg/mL.
For GENTAMICIN, the MIC90 [7] was 2 µg/mL.
`CCCCCC[N+](C)(C)CCCOc1ccccc1-c1ccccc1OCCC[N+](C)(C)CCCCCC.[Br-].[Br-]` showed an MIC [2] of 128 µg/mL, an MIC [3] of 128 µg/mL and an MIC [4] of 16 µg/mL. It also gave an MIC [5] of 2 µg/mL and an HC50 at 1 h [6] greater than 1280 µg/mL.
In the case of `COc1cccc(OC)c1C(=O)N[C@@H]1C(=O)N2[C@@H]1SC(C)(C)[C@@H]2C(=O)O`, the Activity [1] is reported as “Active”.
`CCCCCCCC[N+](C)(C)CCCOc1cccc(-c2cccc(OCCC[N+](C)(C)CCCCCCCC)c2)c1.[Br-].[Br-]` showed an MIC [2] of 2 µg/mL, an MIC [3] of 1 µg/mL and an MIC [4] of 0.5 µg/mL. The MIC [5] was 2 µg/mL and the HC50 at 1 h [6] was 145 µg/mL.
For `CCCCCCCCCCCC[N+](C)(C)CCCOc1ccccc1-c1ccccc1OCCC[N+](C)(C)CCCCCCCCCCCC.[Br-].[Br-]`, the MIC [2] was 32 µg/mL, the MIC [3] was 32 µg/mL and the MIC [4] was 4 µg/mL. For the same compound, the MIC [5] was 16 µg/mL and the HC50 at 1 h [6] was 12 µg/mL.
Work on `CCCCCCCCCC[N+](C)(C)CCCOc1cccc(-c2cccc(OCCC[N+](C)(C)CCCCCCCCCC)c2)c1.[Br-].[Br-]` yielded an MIC [2] of 2 µg/mL, an MIC [3] of 2 µg/mL and an MIC [4] of 0.5 µg/mL. It also gave an MIC [5] of 1 µg/mL and an HC50 at 1 h [6] of 19 µg/mL.
With `CO[C@H]1/C=C/O[C@@]2(C)Oc3c(C)c(O)c4c(O)c(c(/C=N/N5CCN(C)CC5)c(O)c4c3C2=O)NC(=O)/C(C)=C\C=C\[C@H](C)[C@H](O)[C@@H](C)[C@@H](O)[C@@H](C)[C@H](OC(C)=O)[C@@H]1C` [RIFAMPIN] the MIC90 [7] was 128 µg/mL (≈ 156 µM).
With `CC[C@H]1OC(=O)[C@H](C)[C@@H](O[C@H]2C[C@@](C)(OC)[C@@H](O)[C@H](C)O2)[C@H](C)[C@@H](O[C@@H]2O[C@H](C)C[C@H](N(C)C)[C@H]2O)[C@](C)(O)C[C@@H](C)C(=O)[C@H](C)[C@@H](O)[C@]1(C)O` [ERYTHROMYCIN] the MIC90 [7] was 128 µg/mL (≈ 174 µM).
`CCCCCC[N+](C)(C)CCCOc1ccc(-c2ccc(OCCC[N+](C)(C)CCCCCC)cc2)cc1.[Br-].[Br-]` gave an MIC [2] of 1 µg/mL, an MIC [3] of 2 µg/mL and an MIC [4] of 1 µg/mL. For the same compound, the MIC [5] was 2 µg/mL and the HC50 at 1 h [6] was 487 µg/mL.
